Tests used:
[1] = system: Glomus intraradices / Medicago truncatula plantlets; test: In vitro phosphate (33P) transport to host plant by mycorrhizal fungi; assay type: in vivo; settings: 96 hours after addition of 33P, average of 4 replicates
Procedure: One-week-old Medicago truncatula plantlets were transferred in the AM-P in vitro culture systems (details on AM-P systems see: H. Dupré Boulois et al., 2006). The roots were placed in the root compartment (RC) on the surface of the solid MSR medium (Declerck et al., 2003) lacking vitamins and sucrose. The RC was filled with 25 ml and the hyphal compartment (HC) with 20 ml of solid MSR medium, lacking sucrose, vitamins and solidified with 3 g l^−1 Phytagel.
Roots of M. truncatula plantlets were subsequently inoculated with the spores (±100) of Glomus intraradices. The bi-compartmented Petri plates of the AM-P in vitro culture systems were then sealed using Parafilm (Pechiney, Menasha, Wis., USA) and wrapped in black plastic bags to maintain roots and the G. intraradices in the dark. The AM-P in vitro culture systems were subsequently incubated in a controlled environment chamber (20° C., 16 h photoperiod). The AMP in vitro culture systems were supplied weekly with 5 ml of MSR medium up to 2 weeks before radio-isotopic labelling (10 weeks after inoculation).
Three weeks after inoculation, AM fungal mycelium started to contact the roots and to develop in the entire volume of the RCs. Between week 5 and 7, the mycelium crossed the partition wall between the RCs and HCs and started to develop in the HCs. The roots that crossed the plastic barrier were trimmed to leave the HC void of roots. Eight weeks after inoculation, the medium contained in the HCs was removed and then replaced by fresh MSR medium, lacking sucrose, vitamins and solidified with 3 g l^−1 Phytagel. In this medium, the active ingredient at the desired concentrations (in 0.1% acetone) was also added. The mycelium started immediately to re-grow into the fresh medium containing the active ingredient. At time of labeling, the mycelium in the HCs was 2 weeks-old.
Ten weeks after beginning of the experiment (i.e. 2 weeks after initiation of hyphal development in the HCs containing the active ingredient), filter-sterilized (Acrodisc® Syringe Filters, PALL Corporation, Ann Arbor, Mich., USA) phosphorus (^33P) was added in the HCs (489520+/−12080 CPM per systems). The source of ^33P was orthophosphate in dilute hydrochloric acid (<0.1 M) supplied by Amersham Pharmacia Biotech (Buckinghamshire, UK). A control treatment was included. Four replicates were considered per treatment.
At the end of the experiment (i.e. 96 hours after the addition of ^33P), the shoots of M. truncatula were collected by cutting the shoots at the level of the solidified MSR medium contained in the RCs. The roots were then removed from the solidified MSR medium and cleaned-free from the remaining gel and extraradical mycelium. Root and shoots were oven dried (60° until constant weight) and weighted. […]

Wheat seeds = test: Germination test on wheat seeds; assay type: in vivo; settings: agar plates, 7.5° C. dark, 5 replicates of 20 seeds
Procedure: (§1) The test is performed under lab conditions. Soybean and maize seeds, treated with the active ingredient solved in DMSO and diluted with water to the desired dosages, are placed on sterile agar plates (0.5% agar in water). Covered plates are incubated at 7.5° C. and 10° C. respectively in the dark. Wheat seeds, treated with the active ingredient, solved in DMSO and diluted with water to the desired dosages, are placed on sterile agar plates (1% agar in water). Covered plates are incubated at 7.5° C. in the dark. Controls are performed in the same conditions in the absence of the active ingredient. Assessment consisted of counting germinated seeds per plate at different time points.

Soybean plants = test: Greenhouse experiment on soybean inoculated with Bradyrhizobium japonicum; assay type: in vivo
Procedure: Test is performed under greenhouse conditions. The experiment was conducted at a constant air temperature of 25° C. (day) and 20° C. (night) and 65% relative humidity. Plants were regularly watered with ½ strength Nitrogen free Hoagland's solution (Hoagland and Arnon, 1950) as needed.
Initial culture of Bradyrhizobium japonicum was prepared by inoculating single cell colonies from petri plates in 200 mL Yeast Extract Mannithol (YEM) broth (pH 6.8) and incubated at 28° C. and shaken at 150 rpm until an OD600 of 0.2-0.3 is achieved (2-3 days). Absorbance (A600 nm) of the bacterial cultures was determined using a spectrophotometer. The culture was diluted to an OD600 of 0.08 and 1 mL of this culture was used for inoculation onto seeds of all treatments.
Soybean seeds were surface sterilized in 2% sodium hypochlorite for 3 min and then rinsed several times with distilled water (Bhuvaneswari et al. 1980). Seeds were directly sown in pots (130 mm diameter) containing a mixture of sand and turface (2:1, v/v). Five soybean seeds were put in each. Before sowing seeds were soaked in solution containing the active ingredient at the desired concentration for at least two hours. Bradyrhizobium japonicum inoculant prepared as described above was inoculated onto soybean seeds by pipetting 1 mL of diluted culture onto each seed. The seeds were covered gently with the potting mixture, kept on the growth bench. After monitoring emergence, seedlings were thinned to one seedling per pot.
The plants were allowed to grow for 45 days after seeding and were then harvested for final data collection. Data were collected on the following variables: • 1. SPAD meter readings (leaf greenness measurements (chlorophyll content); SPAD-502 Chlorophyll Meter (Konica Minolta Sensing Inc., Japan) • 2. Number of nodules per plant • 3. Nodule dry weight

Soybean seeds = test: Germination test on soybean seeds; assay type: in vivo; settings: agar plates, 7.5° C. dark, 5 replicates of 20 seeds
Procedure: as §1

AMF spores = test: Arbuscular mycorrhizal fungi (AMF) spore germination experiment; assay type: cell-based; settings: 10^−8M in M-medium, 26.5° C. dark, average of 3 replicates
Procedure: Test is performed under lab conditions. The active ingredient was solved in a solvent (acetone) and added to warm culture medium (M-medium; Bécard et Fortin, 1988) to obtain a final concentration of 10^−8M. After filling the culture medium in 24-well plates, AMF spores were deposited on the surface of culture medium. Plates were incubated at 26.5° C. in the dark. Assessment consisted of counting of germinated spores 3 and 4 days after application (daa).

Maize plants = test: Greenhouse experiment on maize (SPAD chlorophyll reading); assay type: in vivo; settings: seeds soaked, 0.1 mg/ha, 45 days after seeding, average of 4 replicates
Procedure: Test is performed under greenhouse conditions. Plants were grown in pots on a growth bench in the greenhouse at constant air temperature of 25° C. (day) and 20° C. (night) and 65% relative humidity. Plants were regularly watered with ½ strength Hoagland's solution containing nitrogen (Hoagland and Arnon, 1950) as needed. Maize seeds were carefully surface sterilized in 2% sodium hypochlorite for 3 min. followed by several rinsing with sterile distilled water (Bhuvaneswari et al. 1980). Seeds were directly sown in pots ([…]) containing a mixture of sand and turface (2:1, v/v) (2.5 L in each pot. Five seeds were put in each pot. The seeds were covered gently with the potting mixture and kept on the growth bench. After counting emergence, seedlings were thinned to one seedling per pot. Before sowing, seeds were soaked in solution containing the active ingredient at the desired concentration for at least two hours. The plants were allowed to grow for 45 days after seeding and were then harvested for final data collection. Data were collected on the SPAD meter readings (leaf greenness measurements (chlorophyll content); SPAD-502 Chlorophyll Meter (Konica Minolta Sensing Inc., Japan)

Spring wheat = Spring wheat field trial (2010); assay type: in vivo; settings: seed treatment of spring wheat, result in words
Procedure: Maize and wheat field trials were conducted in order to evaluate several assessments including the weight of plant (leaf+roots), the formation of mycorrhiza, and yield parameters like the weight of grains per plot in tons per ha and the 1000 kernel weight. In addition to the tested compounds, a basic treatment of fungicides was also applied on the seeds. The tested active ingredients were pre-diluted in DMSO and applied on seeds in tank mix with fungicides. Spring wheat: Germany (Monheim), soil description: sandy loam, phosphor 11 mg/100 g soil, potassium 14 mg/100 g soil, magnesium 8 mg/100 g soil, organic matter 1.2%, pH 6.4. Sowing date: 2010-04-01 In both crops no phosphate or potassium fertilizer were applied. Compound A1: 0.1 and 1 milligrams active ingredient per hectare Base: Fungicide: Fluoxastrobin+Prothioconazole+Tebuconazole FS 80/Dosage: 5.6+5.6+0.747 grams active ingredient per 100 kg seeds. The following yield parameters were assessed: tons per hectare (for wheat only), TKW=1000 kernel weight. Mycorrhization of roots of spring wheat plants was assessed by trypan blue staining followed by microscopy.

Maize seeds = test: Germination test on maize seeds; assay type: in vivo; settings: agar plates, 10° C. dark, 5 replicates of 20 seeds
Procedure: as §1

[2] = system: maize roots inoculated with arbuscular mycorrhizal fungi; test: Greenhouse experiment on maize under low phosphate conditions (mycorrhization of roots); assay type: in vivo; settings: maize seed treatment 0.1 mg/ha, AMF inoculum, low phosphate (20 μM), 6 weeks greenhouse, trypan blue staining
Procedure: Test is performed in the greenhouse. 5 maize seeds per treatment were sown in 500 ml rose pots (7×7×18 cm) containing a mix of sand and perlite (1:1). 3 replicates were made. The active ingredient was solved in a DMSO and seed treatment was performed with lab equipment. To inoculate with arbuscular mycorrhizal fungi, 8 ml inoculum (AMykor GmbH; Germany) were mixed with 1 l of the sand-perlite mixture. Seeds were covered by 3 cm of LECA (light expanded clay aggregate). Pots were incubated in the greenhouse for 6 weeks at 21.5° C./14° C. (day/night) and 80% relative humidity. Once a week plants were watered with nutrient solution (half concentrated Hoagland solution (Hoagland and Arnon, 1950)) containing only a low concentration of phosphate (20 μM). Assessment consisted of mycorrhization of roots. Mycorrhization was evaluated after trypan blue staining by microscopy. Controls are performed in the same conditions in the absence of the active ingredient.

Arabidopsis root = settings: literature report (Planta, 2008); cited from earlier work
[3] = soybean, seeds soaked, 0.1 mg/ha, 45 days after seeding, average of 4 replicates

Compound	^33P counting root ([1]; 10^−6 M in hyphal compartment)	^33P counting shoot ([1]; 10^−6 M in hyphal compartment)	^33P counting root ([1]; 10^−7 M in hyphal compartment)	^33P counting shoot ([1]; 10^−7 M in hyphal compartment)	Wheat Germination rate 3 daa (Wheat seeds; seed treatment 0.1 mg/ha) [%]	Wheat Germination rate 3 daa (Wheat seeds; seed treatment 1 mg/ha) [%]	biomass (root and shoot) (Soybean plants; soybean seeds treated, greenhouse, comparatively to the control, figures not given)	Nodule weight (dry) (Soybean plants; [3]) [g]	Number of nodules (Soybean plants; [3])	SPAD (Soybean plants; [3])	Soybean Germination rate 7 daa (Soybean seeds; seed treatment 0.1 mg/ha) [%]	Soybean Germination rate 7 daa (Soybean seeds; seed treatment 1 mg/ha) [%]	Germination rate 3 daa (AMF spores; 3 days after application) [%]	Germination rate 4 daa (AMF spores; 4 days after application) [%]	SPAD (Maize plants)	yield (Spring wheat)	Maize Germination rate 6 daa (Maize seeds; seed treatment 0.1 mg/ha) [%]	Maize Germination rate 6 daa (Maize seeds; seed treatment 1 mg/ha) [%]	Mycorrhization [2] [%]	Arabidopsis root length (Arabidopsis root)
CCCCCC(=O)CC(=O)NC1CCOC1=O (centres unmarked) [Compound A1]	121485.7	61277.6	111374.4	70473.9	52	69	increase of biomass (root and shoot)	0.180	84	34	77	84	58	78	42	significative yield increase	95	94	4.3	
CCCCCC(=O)NC1CCOC1=O (centres unmarked) [N-hexanoyl-d1-homoserine-lactone]																				small increase
